Test results reported in ChEMBL document CHEMBL6127108, “Triantaspirols A-C and Paraphaeolactone Cs from Paraphaeosphaeria sp. KT4192: Sensitivity of CP3 in Distinguishing Close NMR Signals” (J Nat Prod, 2024).
The source made the active and inactive calls. The rule behind the calls is not given here.

Test system: COLO 201
Assay: Cytotoxicity against human COLO201 cells assessed as inhibition of cell growth incubated for 24 hrs by WST-1 assay
Format: functional, cell-based
Details: for IC50: COLO 201, 24 h

`Cc1ccc(O)c2c1C(=O)[C@@](C)(Oc1ccc(O)c3c1[C@@H](O)CCC31Oc3cccc4cccc(c34)O1)O2` showed an IC50 of 17 µM.

With `CC[C@@]1(O)C(=O)OCc2c1cc1n(c2=O)Cc2cc3ccccc3nc2-1` [CAMPTOTHECIN] the IC50 was 34 µM.

Compound `Cc1ccc(O)c2c1C(=O)[C@](C)(Oc1ccc(O)c3c1[C@@H](O)CCC31Oc3cccc4cccc(c34)O1)O2` has an IC50 of 23 µM.

For `C[C@@H]1C=C[C@@]2(O)[C@@H]3OC(=O)[C@@](O)([C@H]13)[C@@H]2Oc1ccc(O)c2c1C(=O)CCC21Oc2cccc3cccc(c23)O1`, the Activity was “inactive”.

In the case of `Oc1ccc(O)c2c1[C@@H](O)CCC21Oc2cccc3cccc(c23)O1`, the Activity is reported as “inactive”.
